Experimental data: US9579314B2 (priority 2015, dated 2017)

Assays:
Human M3 receptor = Human M3 receptor (Homo sapiens, UniProt P20309); details: read-out: M3 binding affinity
Human β2 adrenoceptor = Human β2 adrenoceptor (Homo sapiens, UniProt P07550); details: read-out: B2 binding affinity
Chain of Human β2 adrenoceptor (P07550 whole entry): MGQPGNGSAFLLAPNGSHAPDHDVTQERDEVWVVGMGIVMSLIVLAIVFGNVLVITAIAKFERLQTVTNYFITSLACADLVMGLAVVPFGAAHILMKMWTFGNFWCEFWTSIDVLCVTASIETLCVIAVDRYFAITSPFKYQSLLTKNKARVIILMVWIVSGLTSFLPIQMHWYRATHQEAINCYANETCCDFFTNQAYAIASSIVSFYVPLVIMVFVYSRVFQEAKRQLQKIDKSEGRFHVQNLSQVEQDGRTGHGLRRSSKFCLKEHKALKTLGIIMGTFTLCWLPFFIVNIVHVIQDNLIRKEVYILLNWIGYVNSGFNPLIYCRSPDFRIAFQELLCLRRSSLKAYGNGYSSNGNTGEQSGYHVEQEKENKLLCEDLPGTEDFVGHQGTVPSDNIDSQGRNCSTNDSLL

Chain of Human M3 receptor (P20309 whole entry): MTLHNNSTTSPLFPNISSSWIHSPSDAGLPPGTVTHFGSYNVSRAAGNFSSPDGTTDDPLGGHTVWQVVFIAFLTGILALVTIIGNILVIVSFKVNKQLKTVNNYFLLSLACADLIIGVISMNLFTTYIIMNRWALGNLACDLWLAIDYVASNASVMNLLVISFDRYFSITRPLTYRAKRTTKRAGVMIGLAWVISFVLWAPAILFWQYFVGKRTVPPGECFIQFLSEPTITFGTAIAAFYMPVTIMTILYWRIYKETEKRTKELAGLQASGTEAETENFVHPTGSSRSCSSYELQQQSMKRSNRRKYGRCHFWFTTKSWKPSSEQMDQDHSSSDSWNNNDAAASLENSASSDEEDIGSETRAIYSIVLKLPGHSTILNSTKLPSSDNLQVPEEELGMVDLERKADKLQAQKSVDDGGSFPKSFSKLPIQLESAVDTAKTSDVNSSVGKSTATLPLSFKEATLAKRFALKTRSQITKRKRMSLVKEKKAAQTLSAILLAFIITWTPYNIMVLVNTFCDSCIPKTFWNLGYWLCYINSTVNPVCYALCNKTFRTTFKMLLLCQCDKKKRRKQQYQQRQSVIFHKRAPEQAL

Structure (SMILES)	IC50 (Human M3 receptor) [nM]	IC50 (Human β2 adrenoceptor) [nM]
O=C(NCc1ccc(COc2cccc([C@](O)(C(=O)OCC3CCN(Cc4ccccc4)CC3)c3ccccc3)c2)cc1)c1ccc(CCNC[C@H](O)c2ccc(O)c3[nH]c(=O)ccc23)cc1 [Compound 42C, (1-benzylpiperidin-4-yl)methyl (S)-2-hydroxy-2-(3-((4-((4-(2-(((R)-2-hydroxy-2-(8-hydroxy-2-oxo-1,2-dihydroquinolin-5-yl)ethyl)amino)ethyl)benzamido)methyl)benzyl)oxy)phenyl)-2-phenylacetate]	0.3 to 3	< 0.3
O=C(COc1cccc([C@](O)(C(=O)OCC2CCN(Cc3ccccc3)CC2)c2ccccc2)c1)N1CCC2(CC1)CCN(C(=O)c1ccc(CCNC[C@H](O)c3ccc(O)c4[nH]c(=O)ccc34)cc1)CC2 [Compound 95, (1-benzylpiperidin-4-yl)methyl (S)-2-hydroxy-2-(3-(2-(9-(4-(2-(((R)-2-hydroxy-2-(8-hydroxy-2-oxo-1,2-dihydroquinolin-5-yl)ethyl)amino)ethyl)benzoyl)-3,9-diazaspiro[5.5]undecan-3-yl)-2-oxoethoxy)phenyl)-2-phenylacetate]	< 0.3	< 0.3
O=C(NCCOc1cccc([C@@](O)(C(=O)OCC2CCN(Cc3ccccc3)CC2)c2ccccc2)c1)c1ccc(CCNC[C@H](O)c2ccc(O)c3[nH]c(=O)ccc23)cc1 [Compound 34, (R)-(1-benzylpiperidin-4-yl)methyl 2-hydroxy-2-(3-(2-(4-(2-(((R)-2-hydroxy-2-(8-hydroxy-2-oxo-1,2-dihydroquinolin-5-yl)ethyl)amino)ethyl)benzamido)ethoxy)phenyl)-2-phenylacetate]	> 3	0.3 to 3
O=C(NCCOc1cccc([C@](O)(C(=O)OCC2CCN(Cc3ccccc3)CC2)c2ccccc2)c1)c1ccc(CCNC[C@H](O)c2ccc(O)c3[nH]c(=O)ccc23)cc1 [Compound 38, (S)-(1-benzylpiperidin-4-yl)methyl 2-hydroxy-2-(3-(2-(4-(2-(((R)-2-hydroxy-2-(8-hydroxy-2-oxo-1,2-dihydroquinolin-5-yl)ethyl)amino)ethyl)benzamido)ethoxy)phenyl)-2-phenylacetate]	< 0.3	< 0.3
O=C(c1cccc(COc2cccc([C@](O)(C(=O)OCC3CCN(Cc4ccccc4)CC3)c3ccccc3)c2)c1)N1CCC(CNC[C@H](O)c2ccc(O)c3[nH]c(=O)ccc23)CC1 [Compound 35, (S)-(1-benzylpiperidin-4-yl)methyl 2-hydroxy-2-(3-((3-(4-((((R)-2-hydroxy-2-(8-hydroxy-2-oxo-1,2-dihydroquinolin-5-yl)ethyl)amino)methyl)-piperidine-1-carbonyl)benzyl)oxy)phenyl)-2-phenylacetate]	< 0.3	< 0.3
O=C(COc1cccc([C@](O)(C(=O)OCC2CCN(Cc3ccccc3)CC2)c2ccccc2)c1)N1C[C@H]2CCN(C(=O)c3ccc(CCNC[C@H](O)c4ccc(O)c5[nH]c(=O)ccc45)cc3)[C@H]2C1 [Compound 111, (1-benzylpiperidin-4-yl)methyl (S)-2-hydroxy-2-(3-(2-((3aR,6aR)-1-(4-(2-(((R)-2-hydroxy-2-(8-hydroxy-2-oxo-1,2-dihydroquinolin-5-yl)ethyl)amino)ethyl)benzoyl)hexahydropyrrolo[3,4-b]pyrrol-5(1H)-yl)-2-oxoethoxy)phenyl)-2-phenylacetate]	0.3 to 3	0.3 to 3
O=C(COc1cccc([C@](O)(C(=O)OCC2CCN(Cc3ccccc3)CC2)c2ccccc2)c1)N[C@H]1C[C@H](NC(=O)Cc2ccc(CNC[C@H](O)c3ccc(O)c4[nH]c(=O)ccc34)cc2)C1 [Compound 146, (1-benzylpiperidin-4-yl)methyl (S)-2-hydroxy-2-(3-(2-(((1R,3S)-3-(2-(4-((((R)-2-hydroxy-2-(8-hydroxy-2-oxo-1,2-dihydroquinolin-5-yl)ethyl)amino)methyl)phenyl)acetamido)cyclobutyl)amino)-2-oxoethoxy)phenyl)-2-phenylacetate]	0.3 to 3	> 3
COc1cc(C(=O)N[C@H]2C[C@H](NC(=O)COc3cccc([C@](O)(C(=O)OCC4CCN(Cc5ccccc5)CC4)c4ccccc4)c3)C2)c(F)cc1CNC[C@H](O)c1ccc(O)c2[nH]c(=O)ccc12 [Compound 142, (1-benzylpiperidin-4-yl)methyl (S)-2-(3-(2-(((1R,3S)-3-(2-fluoro-4-((((R)-2-hydroxy-2-(8-hydroxy-2-oxo-1,2-dihydroquinolin-5-yl)ethyl)amino)methyl)-5-methoxybenzamido)cyclobutyl)amino)-2-oxoethoxy)phenyl)-2-hydroxy-2-phenylacetate]	0.3 to 3	< 0.3
O=C(COc1cccc([C@](O)(C(=O)OCC2CCN(Cc3ccccc3)CC2)c2ccccc2)c1)N1CCN(C(=O)c2ccc(CCNC[C@H](O)c3ccc(O)c4[nH]c(=O)ccc34)cc2)CC1 [Compound 86, (1-benzylpiperidin-4-yl)methyl (S)-2-hydroxy-2-(3-(2-(4-(4-(2-(((R)-2-hydroxy-2-(8-hydroxy-2-oxo-1,2-dihydroquinolin-5-yl)ethyl)amino)ethyl)benzoyl)piperazin-1-yl)-2-oxoethoxy)phenyl)-2-phenylacetate]	0.3 to 3	< 0.3
COc1cc(C(=O)N[C@H]2C[C@H](NC(=O)c3ccc(COc4cccc([C@](O)(C(=O)OCC5CCN(Cc6ccccc6)CC5)c5ccccc5)c4)cc3)C2)ccc1CNC[C@H](O)c1ccc(O)c2[nH]c(=O)ccc12 [Compound 124, (1-benzylpiperidin-4-yl)methyl (S)-2-hydroxy-2-(3-((4-(((1R,3S)-3-(4-((((R)-2-hydroxy-2-(8-hydroxy-2-oxo-1,2-dihydroquinolin-5-yl)ethyl)amino)methyl)-3-methoxybenzamido)cyclobutyl)carbamoyl)benzyl)oxy)phenyl)-2-phenylacetate]	0.3 to 3	0.3 to 3
O=C(COc1cccc([C@](O)(C(=O)OCC2CCN(Cc3ccccc3)CC2)c2ccccc2)c1)N[C@H]1C[C@H](NC(=O)c2ccc(CNC[C@H](O)c3ccc(O)c4[nH]c(=O)ccc34)cc2Cl)C1 [Compound 133, (1-benzylpiperidin-4-yl)methyl (S)-2-(3-(2-(((1R,3S)-3-(2-chloro-4-((((R)-2-hydroxy-2-(8-hydroxy-2-oxo-1,2-dihydroquinolin-5-yl)ethyl)amino)methyl)benzamido)cyclobutyl)amino)-2-oxoethoxy)phenyl)-2-hydroxy-2-phenylacetate]	< 0.3	< 0.3
O=C(COc1cccc([C@](O)(C(=O)OCC2CCN(Cc3ccccc3)CC2)c2ccccc2)c1)N[C@H]1C[C@H](NC(=O)c2ccc(CNC[C@H](O)c3ccc(O)c4[nH]c(=O)ccc34)cn2)C1 [Compound 144, (1-benzylpiperidin-4-yl)methyl (S)-2-hydroxy-2-(3-(2-(((1R,3S)-3-(5-((((R)-2-hydroxy-2-(8-hydroxy-2-oxo-1,2-dihydroquinolin-5-yl)ethyl)amino)methyl)picolinamido)cyclobutyl)amino)-2-oxoethoxy)phenyl)-2-phenylacetate]	0.3 to 3	< 0.3
COc1cc(CNC[C@H](O)c2ccc(O)c3[nH]c(=O)ccc23)ccc1C(=O)NCc1ccc(COc2cccc([C@](O)(C(=O)OCC3CCN(Cc4ccccc4)CC3)c3ccccc3)c2)cc1 [Compound 42E, (1-benzylpiperidin-4-yl)methyl (S)-2-hydroxy-2-(3-((4-((4-((((R)-2-hydroxy-2-(8-hydroxy-2-oxo-1,2-dihydroquinolin-5-yl)ethyl)amino)methyl)-2-methoxybenzamido)methyl)benzyl)oxy)phenyl)-2-phenylacetate]	0.3 to 3	< 0.3
O=C(c1ccc(CNC[C@H](O)c2ccc(O)c3[nH]c(=O)ccc23)cc1)N1C[C@@H]2CCN(C(=O)COc3cccc([C@](O)(C(=O)OCC4CCN(Cc5ccccc5)CC4)c4ccccc4)c3)[C@@H]2C1 [Compound 77, (1-benzylpiperidin-4-yl)methyl (S)-2-hydroxy-2-(3-(2-((3aS,6aS)-5-(4-((((R)-2-hydroxy-2-(8-hydroxy-2-oxo-1,2-dihydroquinolin-5-yl)ethyl)amino)methyl)benzoyl)hexahydropyrrolo[3,4-b]pyrrol-1(2H)-yl)-2-oxoethoxy)phenyl)-2-phenylacetate]	0.3 to 3	0.3 to 3
O=C(OCC1CCN(Cc2ccccc2)CC1)C(O)(c1ccc(F)cc1)c1cccc(OCCCCCNC[C@H](O)c2ccc(O)c3[nH]c(=O)ccc23)c1 (stereo partly drawn) [Compound 3, (1-benzylpiperidin-4-yl)methyl 2-(4-fluorophenyl)-2-hydroxy-2-(3-((5-(((R)-2-hydroxy-2-(8-hydroxy-2-oxo-1,2-dihydroquinolin-5-yl)ethyl)amino)pentyl)oxy)phenyl)acetate]	0.3 to 3	< 0.3
O=C(COc1cccc([C@](O)(C(=O)OCC2CCN(Cc3ccccc3)CC2)c2ccccc2)c1)N[C@H]1CCCN(C(=O)c2ccc(CCNC[C@H](O)c3ccc(O)c4[nH]c(=O)ccc34)cc2)C1 [Compound 106, (1-benzylpiperidin-4-yl)methyl (S)-2-hydroxy-2-(3-(2-(((S)-1-(4-(2-(((R)-2-hydroxy-2-(8-hydroxy-2-oxo-1,2-dihydroquinolin-5-yl)ethyl)amino)ethyl)benzoyl)piperidin-3-yl)amino)-2-oxoethoxy)phenyl)-2-phenylacetate]	0.3 to 3	0.3 to 3
O=C(NCCCOc1cccc([C@](O)(C(=O)OCC2CCN(Cc3ccccc3)CC2)c2ccccc2)c1)c1ccc(CNC[C@H](O)c2ccc(O)c3[nH]c(=O)ccc23)cn1 [Compound 32K, (S)-(1-benzylpiperidin-4-yl)methyl 2-hydroxy-2-(3-(3-(5-((((R)-2-hydroxy-2-(8-hydroxy-2-oxo-1,2-dihydroquinolin-5-yl)ethyl)amino)methyl)picolinamido)propoxy)phenyl)-2-phenylacetate]	0.3 to 3	< 0.3
O=C(NCCCOc1cccc([C@](O)(C(=O)OCC2CCN(Cc3ccccc3)CC2)c2ccccc2)c1)c1ccc(CNC[C@H](O)c2ccc(O)c3[nH]c(=O)ccc23)c(OC(F)(F)F)c1 [Compound 32E, (S)-(1-benzylpiperidin-4-yl)methyl 2-hydroxy-2-(3-(3-(4-((((R)-2-hydroxy-2-(8-hydroxy-2-oxo-1,2-dihydroquinolin-5-yl)ethyl)amino)methyl)-3-(trifluoromethoxy)benzamido)propoxy)phenyl)-2-phenylacetate]	0.3 to 3	0.3 to 3
